From ChEMBL document CHEMBL5143508, “Design, synthesis and biological evaluation of novel o-aminobenzamide derivatives as potential anti-gastric cancer agents in vitro and in vivo” (Eur J Med Chem, 2022)
“And” between values parts separate entries of the source, which are not always exact repeats. Equal entries are not always repeated. The source made the active and inactive calls. No cut-off for these calls is given here.

Assays:
HGC-27 [1] = experiment: Induction of cell cycle arrest in human HGC-27 cells assessed as upregulation of p27 expression at 0.5 to 8 uM incubated for 48 hrs by Western blot analysis; type: functional, cell-based; settings: dose 0.5-8 µM
HGC-27 [2] = experiment: Induction of apoptosis in human HGC-27 cells assessed as upregulation in cytochrome c expression at 0.5 to 8 uM incubated for 48 hrs by Western blot analysis; type: functional, cell-based; settings: dose 0.5-8 µM
HGC-27 [3] = experiment: Induction of apoptosis in human HGC-27 cells assessed as necrotic cells at 0.5 uM incubated for 48 hrs by annexin V FITC/propidium iodide staining based flow cytometry (reference value: 1.24 %); type: functional
MGC-803 [4] = experiment: Induction of apoptosis in human MGC-803 cells assessed as necrotic cells at 2.5 uM incubated for 48 hrs by annexin V FITC/propidium iodide staining based flow cytometry (reference value: 1.06 %); type: functional
HGC-27 [5] = experiment: Induction of apoptosis in human HGC-27 cells assessed as early apoptotic cells at 2 uM incubated for 48 hrs by annexin V FITC/propidium iodide staining based flow cytometry (reference value: 0.66 %); type: functional
HGC-27 [6] = experiment: Induction of cell cycle arrest in human HGC-27 cells assessed as reduction in accumulation of cells at G2/M phase at 0.5 to 8 uM incubated for 24 hrs by PI staining based flow cytometry analysis; type: functional; settings: dose 0.5-8 µM
HGC-27 [7] = experiment: Induction of apoptosis in human HGC-27 cells assessed as viable cells at 8 uM incubated for 48 hrs by annexin V FITC/propidium iodide staining based flow cytometry (reference value: 93.0 %); type: functional; settings: read-out: Activity
HGC-27 [8] = experiment: Induction of apoptosis in human HGC-27 cells assessed as late apoptotic cells at 0.5 uM incubated for 48 hrs by annexin V FITC/propidium iodide staining based flow cytometry (reference value: 5.14 %); type: functional
HGC-27 [9] = experiment: Induction of cell cycle arrest in human HGC-27 cells assessed as reduction in accumulation of cells at S phase at 0.5 to 8 uM incubated for 24 hrs by PI staining based flow cytometry analysis; type: functional; settings: dose 0.5-8 µM
HGC-27 [10] = experiment: Induction of apoptosis in human HGC-27 cells assessed as viable cells at 0.5 uM incubated for 48 hrs by annexin V FITC/propidium iodide staining based flow cytometry (reference value: 93.0 %); type: functional; settings: read-out: Activity
MGC-803 [11] = experiment: Induction of cell cycle arrest in human MGC-803 cells assessed as reduction in accumulation of cells at G0/G1 phase at 2.5 to 10 uM incubated for 24 hrs by PI staining based flow cytometry analysis; type: functional; settings: dose 2.5-10 µM
MGC-803 [12] = experiment: Induction of apoptosis in human MGC-803 cells assessed as early apoptotic cells at 2.5 uM incubated for 48 hrs by annexin V FITC/propidium iodide staining based flow cytometry (reference value: 0.42 %); type: functional
MGC-803 [13] = experiment: cells; type: functional, cell-based; settings: Homo sapiens, MGC-803, 72 h
Description: Cytotoxicity against human MGC-803 cells assessed as inhibition of cell growth incubated for 72 hrs by MTT assay

[14] = Acute toxicity in Kunming mouse assessed as effect on spleen pathology at 1000 mg/kg, po measured after 14 days; type: organism-based; settings: in vivo, 336 h, time 14 day
[15] = Toxicity in BALB/c mouse xenografted with human HGC-27 cells assessed as mean corpuscular volume at 75 mg/kg, po bid for 19 days; type: organism-based; settings: in vivo, 456 h, time 19 day
[16] = Toxicity in BALB/c mouse xenografted with human HGC-27 cells assessed as granulocyte level at 150 mg/kg, po bid for 19 days; type: organism-based; settings: in vivo, 456 h, time 19 day
[17] = Toxicity in BALB/c mouse xenografted with human HGC-27 cells assessed as red blood cell distribution width at 150 mg/kg, po bid for 19 days; type: organism-based; settings: in vivo, 456 h, time 19 day
HGC-27 [18] = experiment: In vivo induction of cell cycle arrest in human HGC-27 cells xenografted in BALB/c mouse assessed as decrease in CDK2 expression at 75 to 150 mg/kg, po bid administered for 19 days and measured by immunohistochemical analysis; type: functional, organism-based; settings: dose 75-150 mg/kg, time 19.0 day
[19] = Toxicity in BALB/c mouse xenografted with human HGC-27 cells assessed as body weight loss at 75 to 150 mg/kg, po bid administered for 19 days and measured every other day; type: organism-based; settings: in vivo, 456 h, dose 75-150 mg/kg, time 19 day
[20] = Toxicity in BALB/c mouse xenografted with human HGC-27 cells assessed as mean platelet volume at 75 mg/kg, po bid for 19 days; type: organism-based; settings: in vivo, 456 h, time 19 day
HGC-27 [21] = experiment: In vivo induction of apoptosis in human HGC-27 cells xenografted in BALB/c mouse assessed as increase in cleaved caspase-3 expression at 75 to 150 mg/kg , po bid administered for 19 days and measured by immunohistochemical analysis; type: functional, organism-based; settings: dose 75-150 mg/kg, time 19.0 day
HGC-27 [22] = experiment: Induction of cell cycle arrest in human HGC-27 cells assessed as upregulation of p21 expression at 0.1 to 1.6 uM incubated for 48 hrs by Western blot analysis; type: functional, cell-based; settings: dose 0.1-1.6 µM
HGC-27 [23] = experiment: Antitumor activity against human HGC-27 cells xenografted in BALB/c mouse assessed as tumor growth inhibition at 75 mg/kg, po bid administered for 19 days; type: functional; settings: HGC-27, 456 h, time 19 day, read-out: TGI
[24] = Toxicity in BALB/c mouse xenografted with human HGC-27 cells assessed as monocyte level at 75 mg/kg, po bid for 19 days; type: organism-based; settings: in vivo, 456 h, time 19 day
HGC-27 [25] = experiment: Induction of apoptosis in human HGC-27 cells assessed as viable cells at 0.1 uM incubated for 48 hrs by annexin V FITC/propidium iodide staining based flow cytometry (reference value: 93.0 %); type: functional; settings: read-out: Activity
HGC-27 [26] = experiment: Induction of cell cycle arrest in human HGC-27 cells assessed as reduction in accumulation of cells at G0/G1 phase at 0.1 to 1.6 uM incubated for 24 hrs by PI staining based flow cytometry analysis; type: functional; settings: dose 0.1-1.6 µM
MGC-803 [27] = experiment: Induction of apoptosis in human MGC-803 cells assessed as necrotic cells at 20 uM incubated for 48 hrs by annexin V FITC/propidium iodide staining based flow cytometry (reference value: 1.06 %); type: functional
in vitro = settings: human, GES1 cells
Description: Cytotoxicity against human GES1 cells assessed as inhibition of cell growth incubated for 72 hrs by MTT assay

SGC-7901 = experiment: cells; type: functional, cell-based; settings: Homo sapiens, SGC-7901, 72 h
Description: Cytotoxicity against human SGC-7901 cells assessed as inhibition of cell growth incubated for 72 hrs by MTT assay

[28] = Toxicity in BALB/c mouse xenografted with human HGC-27 cells assessed as platelet distribution width at 150 mg/kg, po bid for 19 days; type: organism-based; settings: in vivo, 456 h, time 19 day
[29] = Acute toxicity in Kunming mouse assessed as effect on kidney pathology at 1000 mg/kg, po measured after 14 days; type: organism-based; settings: in vivo, 336 h, time 14 day
MGC-803 [30] = experiment: Induction of cell cycle arrest in human MGC-803 cells assessed as reduction in accumulation of cells at S phase at 5 to 20 uM incubated for 24 hrs by PI staining based flow cytometry analysis; type: functional; settings: dose 5-20 µM
[31] = Toxicity in BALB/c mouse xenografted with human HGC-27 cells assessed as monocyte level at 150 mg/kg, po bid for 19 days; type: organism-based; settings: in vivo, 456 h, time 19 day
HGC-27 [32] = experiment: Induction of apoptosis in human HGC-27 cells assessed as early apoptotic cells at 0.1 uM incubated for 48 hrs by annexin V FITC/propidium iodide staining based flow cytometry (reference value: 0.66 %); type: functional
[33] = Acute toxicity in Kunming mouse assessed as effect on lung pathology at 1000 mg/kg, po measured after 14 days; type: organism-based; settings: in vivo, 336 h, time 14 day

O=C(NCc1ccc(NC(=O)c2ccccc2N2CCCC2)cc1)OCc1cccnc1
Activity (HGC-27 [1]): Active
Activity (HGC-27 [2]): Active
Activity (HGC-27 [3]): 2.55%
Activity (MGC-803 [4]): 4.32%
Activity (HGC-27 [5]): 1.59%
Activity (HGC-27 [6]): Active
viability at 8 µM (HGC-27 [7]): 36.2%
Activity (HGC-27 [8]): 17.4%
Activity (HGC-27 [9]): Active
viability at 0.5 µM (HGC-27 [10]): 79.1%
Activity (MGC-803 [11]): Active
Activity (MGC-803 [12]): 0.85%

O=C(NCc1ccc(NC(=O)c2cc(F)ccc2N2CCCC2)cc1)OCc1cccnc1
IC50 (MGC-803 [13]): 10.7 µM
Activity [14]: Non-Toxic
Activity [15]: 49.83 fL
Activity [16]: 72.9 10^9/L and 90.67%
Activity [17]: 15.33%
Activity (HGC-27 [18]): Active
Activity [19]: Non-Toxic
Activity [20]: 5.6 fL
Activity (HGC-27 [21]): Active
Activity (HGC-27 [22]): Active
inhibition in vivo at 75 mg/kg (HGC-27 [23]): 52.4%
Activity [24]: 1.57 10^9/L and 2.03%
viability at 0.1 µM (HGC-27 [25]): 83.5%
Activity (HGC-27 [26]): Active
Activity (MGC-803 [27]): 2.74%
IC50 at 72 h (in vitro): 90.2 µM
IC50 (SGC-7901): 44.8 µM
Activity [28]: 17.45
Activity [29]: Non-Toxic
Activity (MGC-803 [30]): Active
Activity [31]: 1.7 10^9/L and 2.13%
Activity (HGC-27 [32]): 1.43%
Activity [33]: Non-Toxic
